Test results taken from PMC6201908, “Affinity, potency, efficacy, and selectivity of neurokinin A analogs at human recombinant NK2 and NK1 receptors” (PLoS ONE, 2018).
Like-named read-outs stand apart in the source and are kept apart here. Non-standard residues stand in square brackets, D forms with d. Residues, ends and D or L forms follow the SMILES beside them. No end group written: not given here. NMeL = CN[C@@H](CC(C)C)C(=O)O; βAla = NCCC(=O)O

How the values were obtained:
[1] = target: T1, human recombinant NK1 receptors (Homo sapiens, UniProt P25103); experiment: cell-based; type: cell-based
T1 sequence (P25103 whole entry): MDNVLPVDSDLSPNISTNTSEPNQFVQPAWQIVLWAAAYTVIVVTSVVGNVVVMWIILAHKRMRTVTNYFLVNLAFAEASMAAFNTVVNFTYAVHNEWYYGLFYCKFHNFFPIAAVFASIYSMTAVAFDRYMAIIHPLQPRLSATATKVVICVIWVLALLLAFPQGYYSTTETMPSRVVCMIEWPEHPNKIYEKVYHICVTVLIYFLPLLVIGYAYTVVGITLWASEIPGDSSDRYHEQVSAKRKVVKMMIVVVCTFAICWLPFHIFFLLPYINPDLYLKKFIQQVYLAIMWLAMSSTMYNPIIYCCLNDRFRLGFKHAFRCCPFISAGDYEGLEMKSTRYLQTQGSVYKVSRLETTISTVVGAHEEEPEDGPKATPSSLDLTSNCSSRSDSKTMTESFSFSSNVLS
Description: (§1) CHO-hNK2 and CHO-hNK1 cells were transiently transfected with a CRE-LUC reporter construct using Lipofectamine 2000. At 24 h post-transfection, cells were plated at a density of 20,000 cells/well in a 96-well culture plate. […] Luciferase expression was measured after 5 h of incubation at 37°C (in the presence of 5% CO2) by adding Firefly Luciferase reagent, followed by Renilla Luciferase reagent. Luminescence was measured by using an Envision Multilabel flash lamp reader after addition of the first and second reagents. Data were normalized by calculating the ratio of the Firefly luminescence from the CRE reporter to the Renilla luminescence from the control Renilla Luciferase vector.

[2] = target: T1, human recombinant NK1 receptors; experiment: Displacement of [^3H]-Septide binding to CHO-hNK1 membranes (septide site); conditions: for [^3H]-Septide binding Slope: Hill slope of displacement curve
Description: Protein expression was induced by addition of 5 mM sodium butyrate to the culture medium. […] The cell suspension was collected, placed on ice and centrifuged for 5 min at 4°C and 1200 rpm in a Beckman GS6R centrifuge. After removal of the supernatant the cell pellet was washed and collected by re-suspension in PBS and centrifugation. The final pellet was weighed and frozen at -80°C until use. Frozen pellets were thawed and homogenized in 10 volumes (w/v) of membrane preparation buffer (50 mM HEPES pH 7.4, 1 mM EDTA, 50 μg/mL bacitracin and protease inhibitors) using a Polytron Ultraturrax (twice for 15 s per cycle). The homogenate was centrifuged for 20 min at 4°C and 18500 rpm in a SL-50T Sorvall rotor and the pellet was re-suspended in membrane preparation buffer and re-homogenized as before. After centrifugation for 20 min at 4°C and 18500 rpm, the pellets were re-suspended in 5 volumes of membrane preparation buffer and divided into aliquots before freezing at -80°C. Protein concentration was determined using BioRad Protein Assay (Milan, Italy) with a BSA standard curve. Stock solutions of test compounds (10 mM) were prepared in DMSO and stored at -20°C until use. […] The goodness of fit between One-Site and Two-Site models was examined using Akaike's Information Corrected Criteria (AICC; [23]) in SAS v9.4 (SAS Institute, Cary NC) in order to select the best model for the data generated. […] Data from displacement experiments were plotted as the log [inhibitor concentration] (X axis) versus response expressed as TB in cpm (Y axis).

[3] = target: T2, human recombinant NK2 receptors (Homo sapiens, UniProt P21452); experiment: cell-based; conditions: for NK1/NK2 ratio of EC50s for intracellular calcium response: NK1 EC50 / NK2 EC50
T2 sequence (P21452 1-398): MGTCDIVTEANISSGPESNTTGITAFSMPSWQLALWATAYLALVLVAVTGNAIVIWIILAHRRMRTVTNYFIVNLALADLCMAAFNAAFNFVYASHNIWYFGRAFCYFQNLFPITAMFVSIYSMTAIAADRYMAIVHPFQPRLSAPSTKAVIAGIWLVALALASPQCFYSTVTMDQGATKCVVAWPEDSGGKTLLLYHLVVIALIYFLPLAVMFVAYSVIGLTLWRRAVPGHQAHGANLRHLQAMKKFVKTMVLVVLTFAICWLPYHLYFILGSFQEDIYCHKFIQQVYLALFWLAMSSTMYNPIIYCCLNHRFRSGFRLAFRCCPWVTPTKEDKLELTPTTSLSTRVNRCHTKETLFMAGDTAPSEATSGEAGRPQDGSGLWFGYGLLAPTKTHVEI
Description: (§2) Human recombinant NK2 and NK1 receptors were generated using stably transfected CHO cells (CHO-hNK2 and CHO-hNK1, respectively). Human NK2 or NK1 receptor expressing vectors from Genecopeia (Rockville, USA) were transfected in CHO cells using the standard FuGENE protocol and cells were selected using 450 μg/mL geneticin (G418). Clones expressing the receptors were selected by functional coupling to calcium using FLIPR and a single clone for each receptor subtype was selected for expansion and stable cell line generation. Cells were cultured in a humidified incubator with 5% CO2 in F12K medium containing 10% heat inactivated FBS and 450 μg/mL geneticin and passaged on reaching 80–90% confluence.
(§3) The agonist efficacy of the test compounds at recombinant human NK1 or NK2 receptors expressed in CHO cells was assessed by measuring the intracellular calcium response using the calcium-sensitive dye Fluo-4 AM (Eugene, OR, USA) and a Fluorometric Imaging Plate Reader (FLIPR, Molecular Devices, CA, USA). CHO-hNK1 and CHO-hNK2 cells were seeded into black walled clear-bottom 384-well plates at a density of 10,000 and 15,000 cells per well in 50 μL culture media, respectively, and grown overnight at 37°C in a humidified CO2-incubator. Cells were washed in washing buffer using an EMBLA 384 plate washer, leaving 20 μL of buffer per well after the final aspiration. Cells were then incubated at 37°C with the cytoplasmic Ca^2+ indicator Fluo-4 AM (final concentration 1 μM) in assay buffer (20 mM HEPES, 145 mM NaCl, 5 mM KCl, 5.5 mM glucose, 1 mM MgCl2 and 2 mM CaCl2, pH 7.4, 0.05% Pluronic F-127 and 0.1% BSA) containing 2.5 mM probenecid for 45–60 min (cell loading). Cells were then washed 3 times in washing buffer (20 mM HEPES, 145 mM NaCl, 5 mM KCl, 5.5 mM glucose, 1 mM MgCl2 and 2 mM CaCl2, pH 7.4 and 2.5 mM probenecid) using an EMBLA 384 plate washer, leaving 30 μL of buffer in each well after the last wash. Loaded cell plates were transferred to the FLIPR and calcium responses were monitored as described below. […] Concentration response curves of test compounds were generated in duplicate on at least two different occasions from the same stock solutions. Test solutions were prepared from 10 mM stock solutions in DMSO and 1 μL of each solution was stamped into V-bottom assay plates containing 49 μL assay buffer. The final concentration of DMSO was 0.5% in each well.

[4] = target: T1, human recombinant NK1 receptors; experiment: cell-based
Description: as §2, §3

[5] = target: T2, human recombinant NK2 receptors; experiment: Displacement of [^125I]-NKA binding to CHO-hNK2 membranes
[6] = target: T2, human recombinant NK2 receptors; experiment: cell-based; conditions: for EC50: CHO-hNK2 cells
Description: as §1

NK2 receptor = target: T3, NK2 receptor (Homo sapiens, UniProt P21452); experiment: [125I]-NKA displacement
T3 chain: T2 sequence (P21452 1-398)

[7] = CHO-hNK1 cells, % of maximal response observed with substance P, mean ± SD
[8] = 5.0 nM [^3H]-Septide, CHO-hNK1 membranes 20 μg/well, 23°C, 1 h, mean ± SD
[9] = 5.0 nM [^3H]-Septide, 23°C, 1 h, mean ± SD
[10] = CHO-hNK2 cells, % of maximal response observed with NKA, mean ± SD
[11] = Intracellular Ca^2+ pEC50, CHO-hNK2 cells, mean ± SD
[12] = [^125I]-NKA binding pKi, 0.1 nM [^125I]-NKA, CHO-hNK2 membranes 6 μg/well, 23°C, 3 h, mean ± SD
[13] = 5.0 nM [^3H]-Septide, CHO-hNK1 membranes 20 μg/well, 23°C, 1 h, mean ± SD, read-out: [^3H]-Septide binding pKi (converted)
[14] = displacement of [^3H]-Septide binding, read-out: NK1 [^3H]-Septide Ki
[15] = NK2 EC50 intracellular calcium response, CHO-hNK2 cells
[16] = Intracellular Ca^2+ pEC50, CHO-hNK1 cells, mean ± SD
[17] = NK1 EC50 intracellular calcium response, CHO-hNK1 cells
[18] = mean ± SD, read-out: cAMP stimulation pEC50 (converted)
[19] = read-out: NK2 EC50 cAMP stimulation
[20] = CHO-hNK1 cells, mean ± SD, read-out: cAMP stimulation pEC50 (converted)
[21] = CHO-hNK1 cells, read-out: NK1 EC50 cAMP stimulation

## CSCC[C@H](NC(=O)[C@H](CC(C)C)NC(=O)CNC(=O)[C@@H](NC(=O)[C@H](Cc1ccccc1)NC(=O)[C@H](CO)NC(=O)[C@H](CC(=O)O)NC(=O)[C@@H](NC(=O)[C@H](CCCCN)NC(=O)[C@@H](N)Cc1c[nH]cn1)[C@@H](C)O)C(C)C)C(N)=O [NKA, reference compound]
[1]; [7]
  cAMP stimulation % Max: 100.5 ± 13.6%

## CSCC[C@H](NC(=O)[C@H](CC(C)C)N(C)C(=O)CNC(=O)[C@@H](NC(=O)[C@H](Cc1ccccc1)NC(=O)[C@H](CCCNC(=N)N)NC(=O)[C@@H](N)CC(=O)O)C(C)C)C(N)=O [[Arg^5,MeLeu^9]-NKA(4-10), Asp-Arg-Phe-Val-Gly-(NMe-Leu)-Met-NH2] (H-DRFVG[NMeL]M-NH2)
[2]; [8]
  [^3H]-Septide binding pKi: 7.68 ± 0.16
[2]; [9]
  [^3H]-Septide binding Slope: -0.75 ± 0.03
[3]; [10]
  Intracellular Ca^2+ % Max: 111.5 ± 3.7%
[3]; [11]
  EC50: 0.162 nM
[3]
  NK1/NK2 ratio of EC50s for intracellular calcium response: 2
[4]; [7]
  Intracellular Ca^2+ % Max: 99.9 ± 13.3%
[4]; CHO-hNK1 cells, mean ± SD
  Intracellular Ca^2+ pEC50: 9.52 ± 0.29
[5]; Hill slope of displacement curve, 0.1 nM [^125I]-NKA, 23°C, 3 h, mean ± SD
  [^125I]-NKA binding Slope: -0.90 ± 0.07
[5]; NK1 [^3H]-Septide Ki / NK2 [^125I]-NKA Ki
  NK1/NK2 ratio of Ki values: 174
[5]; [12]
  Ki: 0.126 nM

## CCCC[C@H](NC(=O)[C@H](CC(C)C)N(C)C(=O)CNC(=O)[C@@H](NC(=O)[C@H](Cc1ccccc1)NC(=O)[C@H](CCCCN)NC(=O)[C@@H](N)CC(=O)O)C(C)C)C(N)=O [[Lys^5,MeLeu^9,Nle^10]-NKA(4-10), Asp-Lys-Phe-Val-Gly-Leu(NMe)-Nle-NH2]
[2]; [13]
  Ki: 589 nM
[2]; [14]
  Ki: 589 nM
[3]
  Intracellular Ca^2+ % Max: 101.4 ± 3.0%
[3]; [11]
  EC50: 0.148 nM
[3]; [15]
  EC50: 0.15 nM
[3]; from EC50 ratios
  Fold more selective than NKA for activation of NK2 over NK1 receptors (calcium): approximately 100 fold
[4]
  Intracellular Ca^2+ % Max: 107.6 ± 3.1%
[4]; [16]
  EC50: 15.5 nM
[4]; [17]
  EC50: 15.5 nM
[6]
  cAMP stimulation % Max: 107.4 ± 7.36%
[6]; [18]
  EC50: 0.024 nM
[6]; [19]
  EC50: 0.024 nM
[5]; NK2 [^125I]-NKA Ki, displacement of [^125I]-NKA binding
  Ki: 0.87 nM
[5]; [12]
  Ki: 0.871 nM
[5]; from Ki ratios
  Fold more selective for NK2 over septide site of NK1 receptor compared with NKA (binding): more than 28 fold
[1]
  cAMP stimulation % Max: 94.3 ± 21.6%
[1]; [20]
  EC50: 1.78 nM
[1]; [21]
  EC50: 1.78 nM

## CSCC[C@H](NC(=O)[C@H](CC(C)C)N(C)C(=O)CNC(=O)[C@@H](NC(=O)[C@H](Cc1ccccc1)NC(=O)[C@H](CCCCN)NC(=O)[C@@H](N)CC(=O)O)C(C)C)C(N)=O [[Lys^5,MeLeu^9]-NKA(4–10), Asp-Lys-Phe-Val-Gly-(NMe-Leu)-Met-NH2]
[2]; [8]
  [^3H]-Septide binding pKi: 7.30 ± 0.16
[2]; [9]
  [^3H]-Septide binding Slope: -0.89 ± 0.01
[3]; [10]
  Intracellular Ca^2+ % Max: 88.2 ± 11.4%
[3]; [11]
  EC50: 0.145 nM
[3]
  NK1/NK2 ratio of EC50s for intracellular calcium response: 7
[4]; [7]
  Intracellular Ca^2+ % Max: 106.7 ± 5.7%
[4]; CHO-hNK1 cells, mean ± SD
  Intracellular Ca^2+ pEC50: 9.02 ± 0.39
[5]
  NK1/NK2 ratio of Ki values: 251
  [^125I]-NKA binding Slope: -0.84 ± 0.06
  [^125I]-NKA binding pKi: 9.70 ± 0.16

## CSCC[C@H](NC(=O)[C@H](CC(C)C)NC(=O)CCNC(=O)[C@@H](NC(=O)[C@H](Cc1ccccc1)NC(=O)[C@H](CO)NC(=O)[C@@H](N)CC(=O)O)C(C)C)C(N)=O [[β-Ala^8]-NKA(4–10), Asp-Ser-Phe-Val-[β-Ala]-Leu-Met-NH2] (H-DSFV[βAla]LM-NH2)
[2]; [13]
  Ki: 2090 nM
[2]; [14]
  Ki: 2090 nM
[3]
  Intracellular Ca^2+ % Max: 102.2 ± 7.4%
[3]; [11]
  EC50: 0.871 nM
[3]; [15]
  EC50: 0.86 nM
[4]
  Intracellular Ca^2+ % Max: 106.0 ± 11.5%
[4]; [16]
  EC50: 46.8 nM
[4]; [17]
  EC50: 46.8 nM
[6]
  cAMP stimulation % Max: 84.6 ± 13.1%
[6]; [18]
  EC50: 0.0234 nM
[6]; [19]
  EC50: 0.023 nM
[1]
  cAMP stimulation % Max: 97.3 ± 24.8%
[1]; [20]
  EC50: 5.62 nM
[1]; [21]
  EC50: 5.62 nM

B1: NKA(4-10) (peptide)
chain: DSFVGLM-NH2
NK2 receptor
  Ki: 2.3 nM
